In US11919855B2, “Substituted pyrrolidones and piperidones as small molecule inhibitors of EZH2 and EED protein binding” (Northwestern University, priority 2021, dated 2024):
Blank lines part the entries; values can stand above or below the compound they belong to.

Molecular target: EED-EZH2 (Homo sapiens (Human), UniProt O75530)
Experiment: EED-EZH2 AlphaScreen assay
Type: binding
Settings: 8.7 nM EZH2, 5.0 nM EED, read-out: IC50 Potency Code
Method: Biological activity of exemplary substituted pyrrolidones and piperidones was determined by the EED-EZH2 AlphaScreen assay according the following methodology.
EZH2 (non-complexed), His-GST-tags
Anti-FLAG AlphaLISA Acceptor Beads
AlphaScreen GSH Donor Beads
Assay Protocol (Calculated for 384 Wells or 1 Plate)
• 1. Thaw EED and EZH2 proteins on ice. • 2. Prepare 1× HMT Buffer 2: • 1.5 mL of 4× HMT Buffer 2+4.5 mL ddH2O. • 3. Prepare 1.2× EED-EZH2 solution in 1× HMT Buffer 2: 3.4 mL total • 2.1 uL of EED (0.41 mg/mL, 8.04 uM, 1:1608 dilution)+14 uL of EZH2 (0.24 mg/mL, 2.11 uM, 1:243 dilution)+3.384 mL of 1× HMT Buffer 2 • 4. Prepare 1.2× EZH2 solution in 1× HMT Buffer 2 (positive control): 0.168 mL total • 0.69 uL of EZH2 (0.24 mg/mL, 2.11 uM, 1:243 dilution)+167 uL of 1× HMT Buffer 2 • 5. Add 10 μL of 1.2× EED-EZH2 or 1.2× EZH2 solution to each well. • 6. Add compounds in DMSO via Echo transfer and 30 nL DMSO for control wells. • 7. Centrifuge at 15,000 rpm for 10 seconds and allow to incubate at rt for 1 hour. Step Two • 1. Prepare 6× Anti-FLAG and GSH Donor beads in 1× HMT Buffer 2 in the dark: 1 mL total • 10 uL of Anti-FLAG (1:100 dilution)+5 uL of GSH Donor (1:200 dilution)+985 uL of 1× HMT Buffer 2 • 2. Add 2 μL of bead solution to each well. • 3. Centrifuge at 15,000 rpm for 10 seconds and allow to incubate at rt for 1 hour in the dark. • 4. Read plate. Final Concentrations: • 12 μL volume per well • 8.7 nM EZH2 • 5.0 nM EED • DMSO<0.5% Calculations: • 1. Average EZH2 only wells (positive control) and subtract from all other wells. • 2. Average EED-EZH2 only wells (negative control) to indicate 100% signal or 0% inhibition. • 3. Normalize each well to the average 100% signal from step 2. • 4. Report either as normalized % inhibition or normalized % signal. • Use GraphPad to Calculate IC50.

Chain of EED-EZH2 (O75530 2-441): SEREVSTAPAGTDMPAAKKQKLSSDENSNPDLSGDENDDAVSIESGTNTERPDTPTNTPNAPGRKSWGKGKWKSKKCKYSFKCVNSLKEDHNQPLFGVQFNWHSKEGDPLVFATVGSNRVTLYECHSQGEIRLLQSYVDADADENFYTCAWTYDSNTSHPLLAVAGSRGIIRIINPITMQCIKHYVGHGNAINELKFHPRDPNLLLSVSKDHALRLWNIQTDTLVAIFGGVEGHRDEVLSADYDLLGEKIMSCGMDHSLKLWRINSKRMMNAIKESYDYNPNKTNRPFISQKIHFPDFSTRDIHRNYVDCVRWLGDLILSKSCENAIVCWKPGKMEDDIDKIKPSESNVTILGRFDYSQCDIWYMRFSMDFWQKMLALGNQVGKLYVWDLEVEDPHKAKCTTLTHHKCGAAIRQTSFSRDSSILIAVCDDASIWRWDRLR

SMILES: Cc1ccc(O)c(C(=O)NC2CC(=O)N(Cc3ccccc3C(F)(F)F)C2)c1 (centres unmarked) [NUCC-0163358]
- IC50: 1 to 10 µM

SMILES: Cc1ccc(O)c(C(=O)NC2CC(=O)N(Cc3ccccc3[N+](=O)[O-])C2)c1 (centres unmarked) [NUCC-0202653]
- IC50: 1 to 10 µM

SMILES: COc1ccc(C)cc1C(=O)NC1CC(=O)N(Cc2ccccc2[N+](=O)[O-])C1 (centres unmarked) [NUCC-0202654]
- IC50: > 50 µM

SMILES: COc1cccc(CC(=O)NC2CC(=O)N(Cc3ccccc3[N+](=O)[O-])C2)c1 (centres unmarked) [NUCC-0202655]
- IC50: > 50 µM

SMILES: Cc1c(C(=O)NC2CC(=O)N(Cc3ccccc3[N+](=O)[O-])C2)cccc1[N+](=O)[O-] (centres unmarked) [NUCC-0202656]
- IC50: > 50 µM

SMILES: O=C(NC1CC(=O)N(Cc2ccccc2[N+](=O)[O-])C1)c1cccnc1 (centres unmarked) [NUCC-0202657]
- IC50: > 50 µM

SMILES: O=C(O)c1ccccc1C(=O)NC1CC(=O)N(Cc2ccccc2[N+](=O)[O-])C1 (centres unmarked) [NUCC-0202658]
- IC50: > 50 µM

SMILES: N#Cc1cccc(C(=O)NC2CC(=O)N(Cc3ccccc3[N+](=O)[O-])C2)c1 (centres unmarked) [NUCC-0202659]
- IC50: > 50 µM

SMILES: COc1ccc(C)cc1C(=O)NC1CC(=O)N(Cc2ccccc2C(F)(F)F)C1 (centres unmarked) [NUCC-0202660]
- IC50: 10 to 50 µM

SMILES: COc1cccc(CC(=O)NC2CC(=O)N(Cc3ccccc3C(F)(F)F)C2)c1 (centres unmarked) [NUCC-0202661]
- IC50: > 50 µM

SMILES: Cc1c(C(=O)NC2CC(=O)N(Cc3ccccc3C(F)(F)F)C2)cccc1[N+](=O)[O-] (centres unmarked) [NUCC-0202662]
- IC50: > 50 µM

SMILES: O=C(NC1CC(=O)N(Cc2ccccc2C(F)(F)F)C1)c1cccnc1 (centres unmarked) [NUCC-0202663]
- IC50: > 50 µM

SMILES: O=C(O)c1ccccc1C(=O)NC1CC(=O)N(Cc2ccccc2C(F)(F)F)C1 (centres unmarked) [NUCC-0202666]
- IC50: > 50 µM

SMILES: O=C(NC1CC(=O)N(Cc2ccccc2C(F)(F)F)C1)c1cccc(-c2ccccc2)c1 (centres unmarked) [NUCC-0202667]
- IC50: > 50 µM

SMILES: Cc1cccc(C(=O)NC2CC(=O)N(Cc3ccccc3C(F)(F)F)C2)c1 (centres unmarked) [NUCC-0202668]
- IC50: > 50 µM

SMILES: O=C(NC1CC(=O)N(Cc2ccccc2C(F)(F)F)C1)c1ccccc1O (centres unmarked) [NUCC-0202669]
- IC50: > 50 µM

SMILES: O=C(NC1CC(=O)N(Cc2ccccc2C(F)(F)F)C1)c1ccc(Cl)c(Cl)c1 (centres unmarked) [NUCC-0202670]
- IC50: > 50 µM

SMILES: O=C(NC1CC(=O)N(Cc2ccccc2C(F)(F)F)C1)c1ccc2cc[nH]c2c1 (centres unmarked) [NUCC-0202671]
- IC50: > 50 µM

SMILES: Cc1ccc(O)c(C(=O)NC2CC(=O)N(Cc3ccc(Cl)c(Cl)c3)C2)c1 (centres unmarked) [NUCC-0202672]
- IC50: 10 to 50 µM

SMILES: COc1ccc(C)cc1C(=O)NC1CC(=O)N(Cc2ccc(Cl)c(Cl)c2)C1 (centres unmarked) [NUCC-0202673]
- IC50: > 50 µM

SMILES: O=C(NC1CC(=O)N(Cc2ccc(Cl)c(Cl)c2)C1)c1ccccc1O (centres unmarked) [NUCC-0202674]
- IC50: > 50 µM

SMILES: O=C(NC1CC(=O)N(Cc2ccc(Cl)c(Cl)c2)C1)c1cccnc1 (centres unmarked) [NUCC-0202675]
- IC50: > 50 µM

Other lines, results leading:

- IC50: > 50 µM
SMILES: O=C(O)c1ccccc1C(=O)NC1CC(=O)N(Cc2ccc(Cl)c(Cl)c2)C1 (centres unmarked) [NUCC-0202676]

- IC50: > 50 µM
SMILES: O=C(NC1CC(=O)N(Cc2ccc(Cl)c(Cl)c2)C1)c1cccc(-c2ccccc2)c1 (centres unmarked) [NUCC-0202677]

- IC50: > 50 µM
SMILES: Cc1cccc(C(=O)NC2CC(=O)N(Cc3ccc(Cl)c(Cl)c3)C2)c1 (centres unmarked) [NUCC-0202678]

- IC50: > 50 µM
SMILES: Cc1ccc(O)c(C(=O)N(C)C2CC(=O)N(Cc3ccccc3C(F)(F)F)C2)c1 (centres unmarked) [NUCC-0202747]

- IC50: > 50 µM
SMILES: O=C(NC1CC(=O)N(Cc2ccccc2C(F)(F)F)C1)c1cccc2cc[nH]c12 (centres unmarked) [NUCC-0202749, N-(5-oxo-1-(2-(trifluoromethyl)benzyl)pyrrolidin-3-yl)-1H-indole-7-carboxamide]

- IC50: > 50 µM
SMILES: Cc1ccc(C(=O)NC2CC(=O)N(Cc3ccccc3C(F)(F)F)C2)c(O)c1 (centres unmarked) [NUCC-0202750]

- IC50: > 50 µM
SMILES: Cc1cccc(C(=O)NC2CC(=O)N(Cc3ccccc3C(F)(F)F)C2)c1O (centres unmarked) [NUCC-0202751]

- IC50: > 50 µM
SMILES: CC(C)(C)c1ccc(O)c(C(=O)NC2CC(=O)N(Cc3ccccc3C(F)(F)F)C2)c1 (centres unmarked) [NUCC-0202752]

- IC50: > 50 µM
SMILES: CCc1ccc(O)c(C(=O)NC2CC(=O)N(Cc3ccccc3C(F)(F)F)C2)c1 (centres unmarked) [NUCC-0202753]

- IC50: > 50 µM
SMILES: Cc1ccc(O)cc1C(=O)NC1CC(=O)N(Cc2ccccc2C(F)(F)F)C1 (centres unmarked) [NUCC-0202754]
